Reference: patent publication US11179348B2, “Combination comprising pterostilbene for the treatment of cancer” (FUNDACIÓN UNIVERSIDAD CATÓLICA DE VALENCIA SAN VICENTE …, priority 2015, dated 2021)
Marks after values point to notes of the source that are not given here.

Experiments:
A2058 melanoma = test: In vivo growth of A2058 melanoma xenografts in nu/nu mice; set-up: species or system human
[1] = test system: MDA-MB-231 cells isolated from tumor-bearing mice; test: Chemosensitization of cultured MDA-MB-231 cells isolated from xenografts; assay type: cell-based, human; settings: 72 h-cultured, PL 0.1 μM, Chemo 0.25 μM PAC.PBP, Pter = in vivo pretreatment
Procedure: FIGS. 18-25. Effect of piperlongumine and I-BET762, as GSH depleting and chemosensitizing agents, in in vitro growing human melanoma, pancreatic, breast, lung, liver, prostate, ovarian, and colorectal cancer cells. Cancer cells, isolated from Pter-treated tumor-bearing mice, were cultured as indicated under Methods. Chemotherapy (0.25 μM PAC.PBP in A2058 melanoma and MDA-MB-231 breast carcinoma cells; 0.125 μM PAC.PBP and 25 μM GTB in AsPC-1 pancreatic cancer cells; 1 μM VRB and 15 μM cisPt in A459 lung carcinoma cells; 0.15 μM DXR in HepG2 hepatocellular carcinoma cells; 15 nM DCT in PC-3 prostate carcinoma cells; 0.15 μM PAC.PBP and 25 μM CarboPt in SK-OV-3 ovarian carcinoma cells; 3 μM 5-FU, 1 μM FA and 0.6 μM IRI in HT-29 colorectal carcinoma cells) was added to the cultured flasks 24 h after seeding. […]
Human A2058, MeWo and MelJuso melanoma cells, and mouse AtT-20 pituitary corticotroph tumor cells were from the American Type Culture Collection (ATCC). […] Cell numbers were determined using a Coulter Counter (Coulter Electronic Inc., Miami, Fla.). […] Cellular viability was assessed as previously reported (Mena, S. et al. Clin Cancer Res 13, 2658-2666 (2007)), by measuring trypan blue exclusion and leakage of lactate dehydrogenase activity. […]

BxPC-3 cells = test: Effect of Pter on BxPC-3 cell growth or viability in vitro; assay type: cell-based, human; settings: 15 μM Pter×60 min every 24 h
Procedure: FIG. 11. In vivo effect of Pter on human pancreatic cancer growth. […] For the doses of 20 and 40 mg Pter/kg only the point at the end of the treatment period is shown.
Human A2058, MeWo and MelJuso melanoma cells, and mouse AtT-20 pituitary corticotroph tumor cells were from the American Type Culture Collection (ATCC). Human HEMa-LP epidermal melanocytes were from Life Technologies (Grand Island, N.Y.). Human MDA-MB-231 (triple negative: ER−, PR−, HER2−) and MCF-7 (ER+, PR+, HER2−) breast adenocarcinoma, A549 lung adenocarcinoma (NSCLC), HepG2 hepatocellular carcinoma, LNCaP (AR+) and PC-3 (AR−) prostate adenocarcinoma, SK-OV-3 epithelial ovarian carcinoma, and HT-29 and Caco-2 colorectal carcinoma cells were from the American Type Culture Collection. Cells were grown in Dulbecco's modified Eagle's medium (DMEM) (Invitrogen, San Diego, Calif.), pH 7.4, supplemented with 10% heat-inactivated FCS (Biochrom KG, Berlin, Germany), 100 units/ml penicillin and 100 μg/ml streptomycin. Cells were plated, at a density of 20,000 cells/cm2, and cultured at 37° C. in a humidified atmosphere with 5% CO2. […] Cell numbers were determined using a Coulter Counter (Coulter Electronic Inc., Miami, Fla.). […] Cellular viability was assessed as previously reported (Mena, S. et al. Clin Cancer Res 13, 2658-2666 (2007)), by measuring trypan blue exclusion and leakage of lactate dehydrogenase activity.

CRH mRNA = test: CRH expression in the hypothalamic PVN (in situ hybridization); assay type: in vivo; settings: melanoma-bearing mice; significant in MeWo- and MelJuso-bearing mice
Procedure: CRH Expression in the Brain (In Situ Hybridization).
Sections of 10 μm of the PVN were cut according to a mouse brain atlas (Allen Institute for brain science, http://www.brain-map.org) on a cryostat, mounted on polysine microscope slides (Menzel-Glazer, Braunschweig, Germany), and stored at −80° C. for 24 h. Then sections were fixed in 4% paraformaldehyde, further permeabilized by proteinase K treatment, acetylated twice with 0.25% acetic anhydride in 0.1 M triethanolamine, and dehydrated in a graded ethanol series. Hybridization, carried out as described before (Lachize, S. et al. Proc Natl Acad Sci USA 106, 8038-8042 (2009)), was performed using specific 48-mer, ^35S-labeled oligonucleotide probes for murine CRH mRNA (5′-GGCCCGCGGCGCTCCAGAGACGGATCCCCTGCTCAGCAGGGCCCTGCA-3′) (SEQ ID NO: 1). Hybridized slices were exposed to BioMax MR film (Kodak, Rochester, N.Y.). The mRNA expression of CRH in the PVN was quantified as gray density minus background in digitized images using the NIH ImageJ 1.6 program (http://rsb.info.nih.gov/ij). Bilateral measures were taken from two to four PVN sections for each mouse, which were pooled to provide individual means per mouse. For tissue background, the optical density of a nonhybridized region outside the PVN was measured.

[2] = test system: MDA-MB-231 breast adenocarcinoma; test: In vivo growth of MDA-MB-231 breast cancer xenografts; set-up: species or system human; settings: MDA-MB-231, day 35

COc1cc(/C=C/c2ccc(O)cc2)cc(OC)c1 [Pter, trans-3,5-dimethoxy-4′-hydroxystilbene]
inhibition of tumor growth (A2058 melanoma; A2058, day 35, 30 mg Pter/kg i.v. every 48 h, vs controls): approx. 70% | Tumor vol. (A2058 melanoma; A2058-RFP, 35 days after inoculation, Pter 30 mg/kg i.v. every 48 h and/or CRC infusion 0.3 μg/h): 258 ± 66* mm^3 | Viable cells [1]: 966 ± 177 ×10^6 | cell growth or viability in vitro (BxPC-3 cells): did not affect | CRH mRNA expression in the hypothalamic PVN (CRH mRNA): further decrease | Tumor vol. [2]: 266 ± 89* mm^3
